Data on 1 compound can be found in publication PMC10857906, “PROTAC-mediated NR4A1 degradation as a novel strategy for cancer immunotherapy” (The Journal of Experimental Medicine, 2024).

Molecules are shown by their SMILES.

In one assay the target is T1, NR4A1 (Mus musculus, UniProt P12813).
T1 construct: from tissue; host or cells: MC38 tumours in mice (tumour lysates)
Kind of assay: PD: NR4A1 degradation in MC38 tumors in mice (immunoblotting). Format: in vivo. Here is the method:
Samples were lysed using radioimmunoprecipitation assay buffer (RIPA) lysis buffer (150 mM NaCl, 5 mM EDTA, 50 mM Tris pH 8.0, 0.5% sodium deoxycholate, 1% NP-40, 0.1% SDS) supplemented with 1 mM dithiothreitol and protease inhibitors. The lysates were separated by SDS-PAGE and analyzed using standard western blotting procedures ([Khan et al., 2019]). Antibodies: human NR4A1 (ab153914, 1:1,000; Abcam), mouse NR4A1 (14-5965-82, 1:1,000; Invitrogen), NR4A2 (AV38753, 1:1,000; Sigma-Aldrich), NR4A3 (TA804893, 1: 1,000; Thermo Fisher Scientific), VHL (68547, 1:1,000; Cell Signaling), β-actin (13E5, 1:5,000; Cell Signaling), β-tubulin (9F3, 1: 5,000; Cell Signaling), and GAPDH (D16H11, 1: 5,000; Cell Signaling) were employed for protein detection.
7–9-wk-old C57BL/6J, B6.129S2-Ighm^tm1Cgn/J (002288), B6.129S2-Nr4a1^tm1Jmi/J (NR4A1^−/−, 006187), and NOD-SCID interleukin-2 receptor gamma null (NSG) mice were purchased from Jackson Laboratories. […]
For syngeneic tumor models, 5 × 10^5 cells MC38, Yumm1.7, and Yummer1.7, 1 × 10^5 cells of B16F10 were resuspended in PBS and implanted into 7–9-wk-old mice subcutaneously. […] Blood samples were taken from the submandibular (facial) vein before each treatment and 42 days later for hematological analysis, and body weight was measured twice per week up to day 42. […]

For the next assay, the system named is OT-1 CD8^+ Texh cells. Kind of assay: T cell exhaustion in vitro, mouse OT-1 CD8^+ T cells. Conditions: 500 nM, 48 h. Type of assay: cell-based. The procedure: We conducted experiments involving the isolations and treatments of CD8^+ T cells from both OT-1 mice (C57BL/6-Tg(TcraTcrb)1100Mjb/J; Jackson Laboratories) and T cells from human PBMCs. CD8^+ T cells were isolated from OT-1 mice using the EasySep Mouse CD8 T Cell Isolation Kit, followed by daily treatment with 10 ng/ml ovalbumin (257–264) (S7951-1MG; Sigma-Aldrich) for specified durations. After 3 days of ovalbumin treatment, OT-1 CD8^+ T cells were activated, and after 7 days of treatment, they reached a state of exhaustion. Human T cells were isolated from PBMCs using the EasySep Human CD3 Positive Selection Kit II (17851; STEMCELL) and cultured with Dynabeads (Cell/Dynabeads: 1:1, A56992; Thermo Fisher Scientific) for 3 days to induce activation and for 7 days to induce exhaustion. Both mouse and human T cells received a treatment of 500 nM NR-V04 2 days prior to harvesting. To characterize the T cell subtypes, we employed specific flow cytometry antibodies and conducted flow cytometry analysis.
Mouse tumors were excised and ∼200 mg of tumor tissue was enzymatically and mechanically digested using the mouse Tumor Dissociation Kit (Miltenyi Biotec) to obtain a single-cell suspension. […] Flow cytometry was performed on a three laser Cytek Aurora Cytometer (Cytek Biosciences) and analyzed using FlowJo software (BD Biosciences). […]

T1 sequence (P12813 whole entry): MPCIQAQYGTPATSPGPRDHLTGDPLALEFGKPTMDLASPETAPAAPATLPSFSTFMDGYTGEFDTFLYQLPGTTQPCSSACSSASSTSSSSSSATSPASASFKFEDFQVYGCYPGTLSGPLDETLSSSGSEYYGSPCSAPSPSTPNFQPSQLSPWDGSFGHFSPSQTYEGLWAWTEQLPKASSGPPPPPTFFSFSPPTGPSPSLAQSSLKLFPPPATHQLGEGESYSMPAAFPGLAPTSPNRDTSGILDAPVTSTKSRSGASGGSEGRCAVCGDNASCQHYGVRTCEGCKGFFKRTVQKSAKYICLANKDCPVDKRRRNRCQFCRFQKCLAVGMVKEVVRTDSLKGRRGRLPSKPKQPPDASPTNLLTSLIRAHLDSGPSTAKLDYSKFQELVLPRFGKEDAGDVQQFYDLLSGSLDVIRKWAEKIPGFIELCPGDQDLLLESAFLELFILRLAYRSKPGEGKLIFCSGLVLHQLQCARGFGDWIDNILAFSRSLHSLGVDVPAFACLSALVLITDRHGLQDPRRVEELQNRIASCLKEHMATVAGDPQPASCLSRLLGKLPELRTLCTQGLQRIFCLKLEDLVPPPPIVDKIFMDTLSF

In the case of `CC1=C(O)C(=O)C=C2C1=CC=C1[C@@]2(C)CC[C@@]2(C)[C@@H]3C[C@](C)(C(=O)NCCOCCOCCOCCOCC(=O)N[C@H](C(=O)N4C[C@H](O)C[C@H]4C(=O)N[C@@H](C)c4ccc(-c5scnc5C)cc4)C(C)(C)C)CC[C@]3(C)CC[C@]12C` [NR-V04], the “NR4A1 protein in MC38 tumors at termination” value on NR4A1 (8 doses for 4 wk, 1.8 mg/kg NR-V04 or 0.75 mg/kg celastrol, every 4 days) is “almost completely degraded”. Further, the “NR4A1 degradation in MC38 tumors” value on NR4A1 (two doses of 1.8 mg/kg i.p., tumors collected 1-4 days after the last treatment) was “significant degradation of NR4A1 starting from day 1 and persisting for 3 days”. For the same compound, the “CD8^+ Texh cells (PD1^+Tim3^+)” value in the assay on OT-1 CD8^+ Texh cells was “significant reduction in CD8^+ Texh cells”.
